Patent publication US20250186458A1, “METHODS FOR THE TREATMENT OF MILD COGNITIVE IMPAIRMENT” (BIOVIE INC., priority 2022, published 2025)

How the values were obtained:
subjects with dementia = test: Trial in subjects with dementia (CDR 1-2, MMSE 14-24), Aptus positive and negative; assay type: in vivo, human
Excerpt: In a trial, the relationship between Clinical Dementia Rating Scale (CDR) and Mini Mental State Exam (MMSE) scores with measures of obesity, including Body Mass Index (BMI), Waist Circumference (WC), and waist-to-hip ratio (W/H) was explored with administration of 17α-ethynylandrost-5-ene-3β,7β,17β-triol. The trial sought to explore the anti-inflammatory and insulin sensitizing activity of 17α-ethynylandrost-5-ene-3β,7β,17β-triol in subjects with dementia, using inclusion criteria of the CDR levels 1-2 and the MMSE scores of 14-24 for inclusion criteria.
In this trial, the correlation between CDR (1-2) and MMSE (14-24) scores and the presence or absence of amyloid by the Aptus test, and also the presence of absence of metabolic inflammation using markers of obesity and metabolic inflammation was explored.
With Aptus data available for 96 subjects that met the criteria for CDR and MMSE, only 35 subjects (36%) met the Aptus criteria. When measures of obesity were examined, BMI was available for 149 subjects. Due to the age-related decrease in muscle mass, only 60 (40%) of the subjects met the CDC criteria (male BMI >40, Female BMI >35) for obesity. These restrictions would severely limit enrollment. […]

[1] = test system: patients with cognitive impairment consistent with MCI or mild probable AD; test: Open-label three-month study, cognitive tests (QDRS, MMSE, MoCA, ADAS-Cog12, Global Rating of Change); assay type: in vivo, human
Excerpt: Twenty-three patients, approximately equal numbers of men women, age 50-89 years, with cognitive impairment consistent with MCI or mild probable AD, but without other readily apparent major systemic disease were identified and received informed consent under the supervision of a central institution review board (IRB). Patients were qualified (screened) for the study by the following criteria, QDRS score ranging from 1.5-12.5, with a converted Clinical Dementia Rating (CDR) score of 0.5 (mild cognitive impairment) to 1 (mild dementia).
Prior to treatment (baseline) concomitant medications were stabilized and the patients were tested for cognitive function by the Quick Dementia Rating Scale (QDRS), Clinical Dementia Rating (CDR) score as estimated by the QDRS, a modified form of the Alzheimer's Disease Assessment Scale (ADAS-Cog12), the Mini-Mental State Examination (MMSE), and the Montreal Cognitive Assessment (MoCA) and by multi-modal brain MRIs to establish pre-treatment data for glutathione levels (as measured by magnetic resonance spectroscopy, MRS), dendritic density (as measured by diffusion tensor imaging, DTI-NODDI); arterial signal compared (as quantified by arterial spin labeling, ASL), functional connectivity of the nucleus basalis of Meynert (NBM) with both hippocampi as well as between both hippocampi as visualized by seed analysis of blood-oxygen level dependent (BOLD) imaging, and neurovascular coupling as visualized by BOLD compared to baseline. Baseline samples of the patients' blood and cerebral spinal fluid were collected for evaluation of AD and inflammation biomarkers.
Patients were treated with 20 mg 17α-ethynylandrost-5-ene-3β,7β,17β-triol oral capsules twice daily (BID for three months. All patients received 17α-ethynylandrost-5-ene-3β,7β,17β-triol; there were no placebo controls. Safety was monitored at clinical visits at 2 weeks, 4 weeks, 8 weeks, and completion. Routine hematology and clinical chemistry tests were performed at these visits and adverse events were monitored.
At the end of the treatment schedule the baseline assessments for cognition, neuroimaging and biomarkers were repeated.

[2] = overall population, three months
[3] = patients with a baseline MMSE score 20, three months

## C#C[C@]1(O)CC[C@H]2[C@@H]3[C@@H](O)C=C4C[C@@H](O)CC[C@]4(C)[C@H]3CC[C@@]21C [17α-ethynylandrost-5-ene-3β,7β,17β-triol, 17-ethynyl-10R, 13S-dimethyl 2,3,4,7, 8R, 9S, 10, 11, 12, 13, 14S, 15, 16, 17-hexadecahydro-1H-cyclopenta[a]phenanthrene-3R, 7R, 17S-triol]
Subjects with dementia
  cognition: improvements in cognition independent of amyloid beta positivity
[1]; 20 mg oral BID, three months vs baseline
  QDRS, median decrease: 0.75 points
[1]; MCI patients, three months
  GSR scores improved, by patients: 15 of 17
  GSR scores improved, by study partners: 11 of 17
  GSR scores improved, by the clinician: 16 of 17
  Median QDRS behavioral improved: one
  Montreal Cognitive Assessment, improved: 7 of 17
  QDRS behavioral, improved: 11 of 18
[1]; MCI population, three months
  ADAS Cog 12, median score improved: 2.3 points
  ADAS Cog 12 score, improved: 14 of 17
  MMSE score, improved: 8 of 17
[1]; of patients evaluated, 20 mg oral BID, three months
  QDRS, patients improved: 14 of 21
[1]; [2]
  ADAS Cog 12, median score improved: 0.67 points
  ADAS Cog 12 score, improved: 14 of 23
  Global Rating of Change (GRS), clinician's score improved: 18 of 23
  Global Rating of Change (GRS), patient's self-evaluation score improved: 18 of 23
  Global Rating of Change (GRS), score from study partners improved: 13 of 22
  MMSE score, improved: 9 of 23
  Montreal Cognitive Assessment, patients improved: 9 of 23
[1]; [3]
  improved (QDRS): 12/17
  median score improvement (QDRS): one
[1]; three months vs baseline
  Median QDRS cognition subscores improved (declined): 0.5 points
  QDRS cognition subscores, patients improved: 16/23
